Like-named read-outs stand apart in the source and are kept apart here.
How the values were obtained:
[1] = test system: HIV1 strain NL4-3; type: cell-based; conditions: normalized mean of HIV1 replication readout
[2] = test system: HCV replicon; type: cell-based; conditions: normalized mean of HCV replicon readout
[3] = test system: F. novicida (strain U112); type: cell-based
[4] = test system: influenza A H1N1 virus; conditions: 48 hr post-treatment, A549
[5] = test system: EBV; conditions: for EBV Norm MEAN: normalized mean of EBV replication readout

Substance | HIV1 Norm MEAN [1] | HCV Norm MEAN [2] | Francisella novicida Norm AUC [3] | Neuraminidase activity normalized to vehicle ([4]; 200 µM peptide) | Neuraminidase activity normalized to vehicle ([4]; 0,823 µM peptide) | Neuraminidase activity normalized to vehicle ([4]; 22,2 µM peptide) | Neuraminidase activity normalized to vehicle ([4]; 2,4691 µM peptide) | Neuraminidase activity normalized to vehicle ([4]; 7,4074 µM peptide) | Neuraminidase activity normalized to vehicle ([4]; 66,6667 µM peptide) | EBV Norm MEAN [5] | HIV1 Norm MEAN ([1]; peptide screen) | HCV Norm MEAN ([2]; peptide screen) | EBV Norm MEAN ([5]; peptide screen) | enhancement of EBV signal ([5]; 20 µM peptide, Hone-1 cells, 48 h)
CPEP63: peptide of the viral peptide library; sequence page not shown (KARHKRRNRSSRS) | 0.7086 | 0.5995 | 1.1166 | 0,8323 | 0,6161 | 0,9172 | 1 | 0,9177 | 0,9488 | 1.249 |  |  |  | 
CPEP64: peptide of the viral peptide library; sequence page not shown (CCFHCQVCFIT) | 8.487 | 1.72 | 0.8687 | 0,0708 | 0,8369 | 0,1905 | 0,9654 | 0,5226 | 0,0909 | 0.8807 |  |  |  | 
CPEP69: peptide of the viral peptide library; sequence page not shown (MRHIICHGGVITEE) |  |  | 1.041 | 1,1006 | 0,9574 | 1,0597 | 1,0075 | 1,0635 | 1,1613 |  | 0.7189 | 0.5472 | 0.4275 | 
CPEP71: viral library peptide from HIV1 Integrase, targets IPO7 (WKGPAKLLWKG) | 1.077 | 0.4108 | 1.748 | 0,1137 | 0,7606 | 1,0288 | 1,0227 | 0,9266 | 0,9918 | 2.918 |  |  |  | more than 2 fold
CPEP74: peptide of the viral peptide library; sequence page not shown (ALGISYGRKKRRQ) | 1.112 | 0.6842 | 1.149 | 0,8907 | 0,913 | 0,9469 | 1,0192 | 0,9165 | 0,9895 | 1.663 |  |  |  | 
CPEP83: peptide of the viral peptide library; sequence page not shown (LHGLSAFSLHSYS) | 3.012 | 0.4141 | 1.204 | 0,249 | 0,6779 | 0,9424 | 0,9223 | 0,934 | 0,7894 | 0.5883 |  |  |  | 
CPEP86: peptide of the viral peptide library; sequence page not shown (SGFGPLITHG) | 0.7849 | 0.5296 | 0.8325 | 0,9563 | 0,7964 | 1,0588 | 1,0728 | 0,943 | 1,0345 | 1.554 |  |  |  | 
CPEP89: peptide of the viral peptide library; sequence page not shown (YDVLKAACKSVIKT) |  |  | 0.9882 | 0,097 | 0,8515 | 0,6685 | 0,8767 | 0,7891 | 0,2057 |  | 4.725 | 1.184 | 0.6285 | 
CPEP96: peptide of the viral peptide library; sequence page not shown (GRKKRRQRRRAHQ) |  |  | 1.029 | 0,8043 | 0,9089 | 0,9748 | 0,9539 | 0,8942 | 0,9344 |  | 0.5669 | 0.3919 | 1.164 | 
CPEP98: peptide of the viral peptide library; sequence page not shown (PLPPTKAPPIPPPR) |  |  | 1.1759 | 1,0266 | 0,8951 | 0,9384 | 0,9959 | 0,9005 | 0,9857 |  | 0.2763 | 0.3984 | 0.8005 | 
CPEP99: peptide of the viral peptide library; sequence page not shown (SWESHKSGGETRL) |  |  | 1.1 | 1,0243 | 0,9063 | 1,004 | 0,994 | 0,9109 | 1,1024 |  | 0.6504 | 0.3379 | 0.7952 | 
CPEP102: peptide of the viral peptide library; sequence page not shown (PHGPVQLSYYD) | 1.958 | 0.8145 | 0.8816 | 0,8099 | 0,6759 | 0,942 | 1,0283 | 0,877 | 1,0125 | 1.648 |  |  |  | 
CPEP103: viral library peptide from HCV NS4A targeting EEF1A1 (GCVVIVGRIVLSGK) |  |  | 0.5448 | 0,0978 | 0,8342 | 0,2828 | 0,8866 | 0,7276 | 0,1254 |  | 0.2448 | 0.4622 | 0.7665 | 
CPEP126: peptide of the viral peptide library; sequence page not shown (TQNLYPDLSEIKK) |  |  | 1.192 | 0,8408 | 0,9498 | 0,8904 | 0,9431 | 0,8627 | 0,9364 |  | 0.6553 | 0.4853 | 0.8026 | 
CPEP127: peptide of the viral peptide library; sequence page not shown (LVKPTVYVYSR) | 1.624 | 0.6257 | 0.4703 | 0,2557 | 0,9001 | 0,8705 | 1,007 | 0,8577 | 0,9535 | 0.673 |  |  |  | 
CPEP135: peptide of the viral peptide library; sequence page not shown (KGHRGSHTMNGH) | 0.5949 | 0.5732 | 1.216 | 0,865 | 0,9322 | 0,9598 | 0,9359 | 0,8333 | 0,9822 | 0.8556 |  |  |  | 
CPEP136: peptide of the viral peptide library; sequence page not shown (VTNDCPNSSIVYE) |  |  | 1.265 | 0,9602 | 0,8343 | 0,8466 | 0,9183 | 0,8168 | 0,9818 |  | 0.7957 | 0.4475 | 1.578 | 
